These results are taken from patent publication US11358973B2, “Di(hetero)aryl macrocyclic compound for inhibiting protein kinase activity” (Shenzhen TargetRx, Inc., priority 2018, dated 2022).

Each structure is given as a SMILES string. Like-named read-outs stand apart in the source and are kept apart here.

In one series the test system is KM12 cell line. The series can be described thus: KM12 cell proliferation analysis (CellTiter-Glo). As to conditions: Homo sapiens, 72 h. The class given is cell-based. On the procedure:
The CGT method was used to detect the in vitro anti-proliferative activity of the compounds of the present disclosure on tumor cells cultured in vitro. The KM12 cell line was maintained in RPMI-1640 medium containing 10% fetal bovine serum and antibiotics, the cells in the logarithmic growth phase were harvested and planted in a 96-well plate. The plate was incubated in an incubator at 37° C., containing 5% carbon dioxide gas overnight. After the test compounds were dissolved in DMSO, a 3-fold concentration gradient dilution with 9 compound concentrations was made. Pre-prepared compounds of different concentrations were transferred to the cell plate in triplicate for each concentration, and continue culturing for 72 h. The final concentration of DMSO in the system was 0.1%, and the initial concentration of the test compound was 300 nM.
CellTiter-Glo reagent was added to the cell plate, and incubated at room temperature for 30 minutes to stabilize the optical signal. Detection was carried out by PerkinElmer Envision microplate reader for determining the inhibitory activity of the compound of the present disclosure at various concentrations on cell proliferation. The inhibitory activity of compounds at different concentrations on cell proliferation was fitted according to Graphpad 5.0 software, and IC50 values were calculated.

For a further series, the target named is TRKC kinase (Homo sapiens, UniProt Q16288). The experiment in a line: Biochemical kinase analysis (HTRF), TRKC. As to conditions: 23° C., read-out: Kinase IC50 (nM) TRK C. How it is done: (§1) Inhibition of TRKA, TRKB, TRKC kinases can be measured by HTRF ([…]) method. The reaction was performed in a 384-well plate at 23° C. with a volume of 20 μL. TRKA TRKB or TRKC kinase were mixed with pre-formulated and diluted compounds of different concentrations for ten minutes in duplicate for each concentration, wherein 11 concentrations made with a 3-fold gradient dilution from the starting concentration of 300 nM were made and the final concentration of DMSO was 2%. The corresponding substrate and ATP were added thereto, and reacted at room temperature for 20 minutes (both a negative and a positive control were set: negative control is blank control, positive control is Entrectinib). After the reaction, detection reagent was added thereto (reagent in HTRF Kinase TK kit), and after incubation at room temperature for 30 minutes, detection was carried out by PerkinElmer Envision microplate reader for determining enzyme activity in the presence of the compounds of the present disclosure at various concentrations, and the inhibitory activity of different concentrations of compounds against enzyme activity was calculated. After that, in accordance with four-factors function and Graphpad 5.0 software, inhibitory activity on enzyme activity under different concentrations of compounds was fitted and IC50 values were calculated.

The next series has as its target TRKA kinase (Homo sapiens, UniProt P04629). The series can be described thus: Biochemical kinase analysis (HTRF), TRKA. As to conditions: 23° C., read-out: Kinase IC50 (nM) TRK A. How it is done:
as §1

The target in the next series is TRKB kinase (Homo sapiens, UniProt Q16620). The series can be described thus: Biochemical kinase analysis (HTRF), TRKB. The following applies: 23° C., read-out: Kinase IC50 (nM) TRK B. How it is done: as §1
Series [1] in a line: Pharmacokinetic experiment in rats. Further details: Cl_pred (L/kg): unit not given here. The following applies: rat; for AUC(0-t) / Cmax / Tmax / half-life / AUC(0-inf) / MRT inf / bioavailability: male, Sprague-Dawley, plasma; for AUC(0-inf): read-out: AUCINF_pred; for MRT inf: read-out: MRTINF_pred; for bioavailability: PO 10 mg/kg vs IV 3 mg/kg. The class given is in vivo, Sprague-Dawley rats. How it is done: 6 male Sprague-Dawley rats (7-8 weeks old, and weighing approximately 210 g) were divided into 2 groups with 3 rats in each group. The rats were intravenously or orally administered a single dose of compounds (3 mg/kg intravenously, 10 mg/kg orally) to compare pharmacokinetic differences.
The rats were feeded on standard food and water. Fasting was started 16 hours before the test. The drug was dissolved in PEG400 and dimethyl sulfoxide. The blood samples were collected from eyelids at the time points of 0.083 hour, 0.25 hour, 0.5 hour, 1 hour, 2 hours, 4 hours, 6 hours, 8 hours, 12 hours, and 24 hours after administration.
Rats were briefly anesthetized after inhalation of diethyl ether and 300 μL of blood sample was collected from the eyelids into test tubes. There was 30 μL of 1% heparin salt solution in the test tube. Tubes were dried at 60° C. overnight before use. After the blood sample was collected at the last time point, the rats were sacrificed after ether anesthesia.
Immediately after the collection of the blood sample, the test tube was gently inverted at least 5 times to ensure sufficient mixing and then placed on ice. The blood sample was centrifuged at 5000 rpm at 4° C. for 5 minutes to separate the plasma from the red blood cells. 100 μL of plasma was aspirated into a clean plastic centrifuge tube with a pipette, marking with the name of the compound and time point. Plasma was stored at −80° C. prior to analysis. The concentration of the compound of the present disclosure in plasma was determined by LC-MS/MS. The pharmacokinetic parameters were calculated based on the blood concentration of the drug for each animal at different time points.

Chain of TRKC kinase (Q16288 32-839): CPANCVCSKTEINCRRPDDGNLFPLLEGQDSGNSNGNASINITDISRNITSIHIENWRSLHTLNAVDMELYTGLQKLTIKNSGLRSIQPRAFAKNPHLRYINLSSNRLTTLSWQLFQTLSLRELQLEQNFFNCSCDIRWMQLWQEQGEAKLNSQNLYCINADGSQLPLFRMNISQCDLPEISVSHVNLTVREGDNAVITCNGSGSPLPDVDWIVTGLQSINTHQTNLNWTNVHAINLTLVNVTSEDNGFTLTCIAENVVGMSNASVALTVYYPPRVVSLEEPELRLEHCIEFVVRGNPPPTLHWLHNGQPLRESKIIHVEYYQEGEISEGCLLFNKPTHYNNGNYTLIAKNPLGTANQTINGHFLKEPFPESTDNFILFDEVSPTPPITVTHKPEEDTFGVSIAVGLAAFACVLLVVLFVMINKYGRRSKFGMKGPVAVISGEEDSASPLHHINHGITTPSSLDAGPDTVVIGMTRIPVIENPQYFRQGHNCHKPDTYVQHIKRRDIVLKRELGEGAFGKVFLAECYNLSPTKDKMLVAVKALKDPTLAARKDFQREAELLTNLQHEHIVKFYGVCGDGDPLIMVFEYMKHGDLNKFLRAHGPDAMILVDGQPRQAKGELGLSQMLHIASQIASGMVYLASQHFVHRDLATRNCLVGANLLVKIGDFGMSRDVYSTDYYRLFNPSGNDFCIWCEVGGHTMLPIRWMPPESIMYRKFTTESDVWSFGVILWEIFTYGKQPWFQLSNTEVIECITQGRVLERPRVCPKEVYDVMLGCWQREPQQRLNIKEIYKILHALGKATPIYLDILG
Chain of TRKA kinase (P04629 33-796): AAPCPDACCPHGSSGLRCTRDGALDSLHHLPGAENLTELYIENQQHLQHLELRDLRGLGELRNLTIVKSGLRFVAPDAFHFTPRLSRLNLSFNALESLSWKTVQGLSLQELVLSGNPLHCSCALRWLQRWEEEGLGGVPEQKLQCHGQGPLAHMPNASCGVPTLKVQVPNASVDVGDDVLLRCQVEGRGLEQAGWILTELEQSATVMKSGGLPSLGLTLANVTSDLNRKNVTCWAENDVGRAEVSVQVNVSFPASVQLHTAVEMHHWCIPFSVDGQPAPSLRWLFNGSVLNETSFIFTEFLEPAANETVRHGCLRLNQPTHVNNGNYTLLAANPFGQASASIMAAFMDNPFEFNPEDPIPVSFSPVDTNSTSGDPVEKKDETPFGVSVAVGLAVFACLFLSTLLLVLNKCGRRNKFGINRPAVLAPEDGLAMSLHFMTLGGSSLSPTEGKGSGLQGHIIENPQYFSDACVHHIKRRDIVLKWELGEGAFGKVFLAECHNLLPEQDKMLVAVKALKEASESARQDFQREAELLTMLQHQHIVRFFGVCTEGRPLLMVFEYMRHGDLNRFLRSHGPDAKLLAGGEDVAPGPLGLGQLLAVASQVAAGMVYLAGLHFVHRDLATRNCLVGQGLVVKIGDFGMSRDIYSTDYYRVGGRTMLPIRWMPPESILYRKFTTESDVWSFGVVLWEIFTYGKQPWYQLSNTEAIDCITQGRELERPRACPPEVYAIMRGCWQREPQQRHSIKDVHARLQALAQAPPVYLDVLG
Chain of TRKB kinase (Q16620 32-822): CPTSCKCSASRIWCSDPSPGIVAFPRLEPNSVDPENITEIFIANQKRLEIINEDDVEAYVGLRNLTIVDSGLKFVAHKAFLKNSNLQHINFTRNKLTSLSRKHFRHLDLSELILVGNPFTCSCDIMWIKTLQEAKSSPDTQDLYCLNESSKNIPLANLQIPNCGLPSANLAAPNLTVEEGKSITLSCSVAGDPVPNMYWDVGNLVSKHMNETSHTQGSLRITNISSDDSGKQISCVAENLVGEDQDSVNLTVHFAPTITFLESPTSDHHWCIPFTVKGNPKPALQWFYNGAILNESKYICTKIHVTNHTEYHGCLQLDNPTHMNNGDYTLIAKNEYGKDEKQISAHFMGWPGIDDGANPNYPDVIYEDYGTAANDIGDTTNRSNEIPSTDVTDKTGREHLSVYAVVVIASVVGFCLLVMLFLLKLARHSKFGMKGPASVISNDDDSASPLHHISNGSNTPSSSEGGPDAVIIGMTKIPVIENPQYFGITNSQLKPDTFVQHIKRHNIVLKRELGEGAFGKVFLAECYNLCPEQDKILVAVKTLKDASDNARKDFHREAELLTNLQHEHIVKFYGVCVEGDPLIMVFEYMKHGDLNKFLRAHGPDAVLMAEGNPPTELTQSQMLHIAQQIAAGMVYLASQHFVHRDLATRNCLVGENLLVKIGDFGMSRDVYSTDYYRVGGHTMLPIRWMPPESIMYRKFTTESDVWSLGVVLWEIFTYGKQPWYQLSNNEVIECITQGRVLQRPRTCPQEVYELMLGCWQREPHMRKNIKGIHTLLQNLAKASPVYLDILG

For `O=C1CCOc2ccc(F)cc2C2CCCN2c2ccn3ncc(c3n2)N1` (racemic) [Compound 9a, 9-fluoro-13-oxa-2,17,20,21,24-pentaazapentacyclo[16.5.2.0^2,6.0^7,12.0^21,25]pentacosane-1(24),7,9,11,18(25),19,22-heptaene-16-one], the IC50 in the series on KM12 cell line worked out at 1.78 nM; on TRKC kinase it was 0.1 nM; at TRKA kinase it was 0.17 nM; at TRKB kinase, 0.1 nM.
Take `O=C1CCOc2ccc(F)cc2[C@H]2CCCN2c2ccn3ncc(c3n2)N1` [Compound L-1-A, (6R)-9-fluoro-13-oxa-2,7,20,21,24-pentaazapentacyclo[16.5.2.0^26.0^7,12.0^21,25]pentacosane-1(24),7,9,11,18(25),19,22-heptaene-16-one]: in series [1] (IV 3 mg/kg), the AUC(0-t) came to 5010 ng·h/mL, the highest level (Cmax) was 2160 ng/mL, the Tmax worked out at 0.08 h and the half-life is 2.2 h. Besides, in series [1] (IV 3 mg/kg), the AUC(0-inf) amounted to 5030 ng·h/mL, the MRT inf amounted to 2.18 h, the “Cl_pred (L/kg)” value turned out to be 0.60 and the “Vz_pred” value amounted to 1.75 L/kg. Also, in series [1] (PO 10 mg/kg), the AUC(0-t) was determined as 11300 ng·h/mL, the Cmax amounted to 1490 ng/mL, the Tmax was 1.58 h and the half-life was 5.77 h. Further, in series [1] (PO 10 mg/kg), the AUC(0-inf) turned out to be 11300 ng·h/mL, the MRT inf was found to be 4.9 h, the “Cl_pred (L/kg)” value turned out to be 0.92 and the “Vz_pred” value is on record as 2.92 L/kg. This molecule returned a bioavailability in series [1] of 67.9%. In the series on KM12 cell line, the IC50 was determined as 0.55 nM. Besides, the IC50 on TRKC kinase is 0.14 nM. Besides, the IC50 at TRKA kinase was found to be 0.18 nM. Besides, the IC50 on TRKB kinase is 0.1 nM.
Take `O=C1CCOc2ccc(F)cc2[C@@H]2CCCN2c2ccn3ncc(c3n2)N1` [Compound L-1-B, (6S)-9-fluoro-13-oxa-2,17,20,21,24-pentaazapentacyclo[16.5.2.0^2,6.0^7,12.0^21,25]pentacosane-1(24),7,9,11,18(25),19,22-heptaene-16-one]: the concentration for half-maximal inhibition (IC50) came to 162 nM in the series on KM12 cell line, 14.2 nM on TRKC kinase, 21.1 nM at TRKA kinase and 15.5 nM on TRKB kinase.
Taken in the same sequence, the figures for `C[C@H]1CC(=O)Nc2cnn3ccc(nc23)N2CCC[C@H]2c2cc(F)ccc2O1` [Compound L-2-B, (6S,14S)-9-fluoro-14-methyl-13-oxa-2,17,20,21,24-pentaazapentacyclo[16.5.2.0^2,6.0^7,12.0^21,25]pentacosane-1(24),7,9,11,18(25),19,22-heptaene-16-one] were 0.65 nM, 0.18 nM, 0.41 nM and 0.13 nM.
Regarding `CC1(C)COc2ccc(F)cc2[C@@H]2CCCN2c2ccn3ncc(c3n2)NC1=O` [Compound L-3-B, (6S)-9-fluoro-15,15-dimethyl-13-oxa-2,17,20,21,24-pentaazapentacyclo[16.5.2.0^2,6.0^7,12.0^21,25]pentacosane-1(24),7,9,11,18(25),19,22-heptaene-16-one], the IC50 at TRKC kinase is above 100 nM; at TRKA kinase, above 100 nM; on TRKB kinase, 70.8 nM.
Consider `C[C@@H]1Nc2ccn3ncc(c3n2)NC(=O)C[C@H](C)Oc2ccc(F)cc21` [Compound T-2-B, (7S,13S)-11-fluoro-7,13-dimethyl-6,7,13,14-tetrahydro-1,15-ethenopyrazolo[4,3-f][1,4,8,10]benzoxatriazacyclotidecin-5(6H)-one], for which the IC50 in the series on KM12 cell line was 4.79 nM; on TRKC kinase, 0.09 nM; on TRKA kinase, 0.36 nM; on TRKB kinase, 0.09 nM.
As to `C[C@H]1Nc2ccn3ncc(c3n2)NC(=O)C(C)(C)COc2ccc(F)cc21` [Compound T-3], the IC50 at TRKC kinase amounted to 0.52 nM; at TRKA kinase it was 0.34 nM; on TRKB kinase, 0.57 nM.
With `C[C@H]1Nc2ccn3ncc(c3n2)NC(=O)NCCOc2ccc(F)cc21` [Compound T-4, (14R)-12-fluoro-14-methyl-5,6,7,8,14,15-hexahydro-1,16-ethenopyrazolo[4,3-g][1,4,9,11]benzoxatetraazacyclotetradecin-5(6H)-one], the IC50 on TRKC kinase was determined as 5.41 nM; at TRKA kinase, 4.91 nM; at TRKB kinase it was 5.31 nM.
For `C[C@H]1Nc2ccn3ncc(c3n2)NC(=O)NCCCc2ccc(F)cc21` [Compound T-5, (14R)-12-fluoro-14-methyl-5,6,7,8,14,15-hexahydro-1,16-ethenopyrazolo[4,3-g][1,4,9,11]benzodioadiazatridecin-5(6H)-one], the IC50 on TRKC kinase worked out at 258 nM; at TRKA kinase, 93.9 nM; at TRKB kinase, 225 nM.
Turning to `C[C@@H]1CCc2ncc(F)cc2[C@H]2CCCN2c2ccn3ncc(c3n2)C(=O)N1` [LOXO-195, reference compound], in series [1] (IV 3 mg/kg), the AUC(0-t) was 4670 ng·h/mL, the Cmax stood at 5010 ng/mL, the Tmax came out at 0.08 h and the half-life is 1.45 h. In series [1] (IV 3 mg/kg), the AUC(0-inf) was 4670 ng·h/mL, the MRT inf is 0.54 h and the “Vz_pred” value amounted to 0.75 L/kg. In addition, in series [1] (PO 10 mg/kg), the AUC(0-t) was 4070 ng·h/mL, the Cmax amounted to 1660 ng/mL, the Tmax was 0.33 h and the half-life was 4.11 h. Moreover, in series [1] (PO 10 mg/kg), the AUC(0-inf) amounted to 4090 ng·h/mL, the MRT inf came out at 2.31 h and the “Vz_pred” value came to 5.13 L/kg. Further, the bioavailability in series [1] turned out to be 26.2%. The IC50 in the series with KM12 cell line amounted to 2.73 nM.
As for `C[C@H]1CNC(=O)c2cnn3ccc(nc23)N[C@H](C)c2cc(F)ccc2O1` [TPX-0005, reference compound], in series [1] (IV 3 mg/kg), the AUC(0-t) came to 3560 ng·h/mL, the Cmax is 2190 ng/mL, the Tmax was determined as 0.08 h and the half-life is 5.77 h. In series [1] (IV 3 mg/kg), the AUC(0-inf) is 3580 ng·h/mL, the MRT inf turned out to be 1.76 h and the “Vz_pred” value is 4.46 L/kg. Besides, in series [1] (PO 10 mg/kg), the AUC(0-t) amounted to 5470 ng·h/mL, the highest concentration (Cmax) stood at 732 ng/mL, the Tmax came to 1.67 h and the half-life was 0.76 h. Also, in series [1] (PO 10 mg/kg), the AUC(0-inf) was 5590 ng·h/mL, the MRT inf was 5.42 h and the “Vz_pred” value is reported as 15.81 L/kg. Besides, the bioavailability in series [1] was found to be 46.1%. In the series with KM12 cell line, this molecule registered an IC50 of 1.97 nM.
